Measured values taken from EP4202440A1, “PROTEOMICS-BASED STRATIFICATION OF ACUTE MYELOID LEUKAEMIA” (Max-Planck-Gesellschaft zur Förderung der Wissenschaften …, priority 2021, dated 2023).

What was measured:
AML cell lines [1] = assay: Seahorse analysis: complex I dependency of respiration after rotenone, cell lines
primary patient samples = assay: Seahorse analysis: complex I dependency of respiration after rotenone, primary patient samples
AML cell lines [2] = assay: Cell viability assay (MTT dye reduction), Mito-high versus Mito-low AML cell lines; assay type: cell-based, Human; conditions: 96 h incubation, Mito AML cell lines (n=9) vs non-Mito AML cell lines (n=10), Wilcoxon rank sum test, Figure 6D
From the text: Human AML cell lines including THP-1 (DSMZ no. ACC16; […]), OCI-AML2 (DSMZ No. ACC 99; FAB M4), OCI-AML3 (DSMZ No. ACC 582; FAB M4), Molm13 (DSMZ No. ACC 554; FAB […]), PL-21 (DSMZ No. ACC 536; FAB M3), HL-60 (DSMZ No. ACC 3; FAB M2), MV4-11 (DSMZ No. ACC 102; FAB M5), SIG-M5 (DSMZ No. ACC 468; FAB […]), ML2 (DSMZ No. ACC 15; FAB M4), NB4 (DSMZ No. ACC 207; FAB M3), KG1 (DSMZ No. ACC 14; FAB not indicated), KG-1a (DSMZ No. ACC 421; FAB not indicated), U-937 (DSMZ No. ACC 5, FAB not indicated), Kasumi-1 (DSMZ No. ACC 220, FAB M2), EOL-1 (DSMZ No. ACC 386, FAB not indicated), OCI-AML5 (DSMZ No. ACC 247, FAB M4), UT-7 (DSMZ No. ACC 137, FAB M7), SET-2 (DSMZ No. ACC 608, FAB no indicated), MonoMac6 (DSMZ No. ACC 124; FAB M5) and HEL (DSMZ No. ACC 11; FAB M6) were obtained from DSMZ (Deutsche Sammlung von Mikroorganismen und Zellkulturen GmbH). THP-1, OCI-AML2, OCI-AML3, Molm13, PL-21, HL-60, MV4-11, SIG-M5, ML2, NB4, KG1, KG-1a, U-937, EOL-1, SET-2, MonoMac6 and HEL were cultured in RPMI 1640 (ThermoFisher, Cat. No. 11875093), supplemented with 20% FBS, 4 mM L-glutamine, 100 IU/ml penicillin and […] streptomycin. Kasumi-1 and OCI-AML5 were cultured in Advanced RPMI (ThermoFisher, Cat. No. 12633012) supplemented with 5% FBS, 4 mM L-glutamine, 100 IU/ml penicillin and […] streptomycin. […] IC50 values were determined using the R package "drc" v3.0-1 (Ritz et al., 2015). […]

C=C(C)[C@H]1Cc2c(ccc3c2O[C@@H]2COc4cc(OC)c(OC)cc4[C@@H]2C3=O)O1 [rotenone, Rotenone] was tested. Which “Complex I dependency (percentage of basal oxygen consumption rate after inhibition with rotenone)” value (AML cell lines [1]) did it give?
The value was “significantly stronger Complex I dependency”.

What about the “Complex I dependency (percentage of basal oxygen consumption rate after inhibition with rotenone)” value (primary patient samples) of the same compound?
The value was “significantly stronger Complex I dependency”.

For FC(F)(F)c1ccc(/C=C/c2nc(COc3ccc(CCCCn4ccnn4)cc3)co2)cc1 [mubritinib, Mubritinib], which “half-maximum inhibitory concentration (IC50): in vitro sensitivity of Mito-high and -low cell lines” value (AML cell lines [2]) is on record?
Its value is “significant hypersensitivity”.
